Assays:
AuroraA-TPX2 = molecular target: T1, AuroraA-TPX2 (Homo sapiens, UniProt O14965); test: AuroraA-TPX2 Homogeneous Time Resolved Fluorescent (HTRF) kinase assay; type: biochemical; conditions: average; read-out: AurA_IC50_IP (uM Avg)
T1 construct: 20 μL of AuroraA-TPX2 KD GST for a final volume of about 41 μL; GST
T1 sequence (O14965 133-383 limits assumed): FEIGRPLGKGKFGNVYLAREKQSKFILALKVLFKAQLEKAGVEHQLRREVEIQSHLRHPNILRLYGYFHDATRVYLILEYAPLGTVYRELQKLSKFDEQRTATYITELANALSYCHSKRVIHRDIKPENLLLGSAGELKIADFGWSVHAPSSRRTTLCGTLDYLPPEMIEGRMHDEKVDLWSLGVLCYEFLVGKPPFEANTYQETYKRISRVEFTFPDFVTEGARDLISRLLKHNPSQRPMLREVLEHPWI
T1 sequence (Q9ULW0 1-43 partner limits assumed): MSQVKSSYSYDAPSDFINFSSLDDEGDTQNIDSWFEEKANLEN
How it was run: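 HTRF read-out (Eu 615 nm to APC 655 nm) of phosphorylated biotin-PLK, detected with 0.02 nM europium anti-phosphoPLK antibody and 0.0005 mg/mL SA-APC after overnight equilibration.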

AuroraB = molecular target: T2, AuroraB (Homo sapiens, UniProt Q96GD4); test: AuroraB Homogeneous Time Resolved Fluorescent (HTRF) kinase assay; type: biochemical; conditions: average; read-out: AurB_IC50_IP (uM Avg)
T2 construct: 20 μL of AuroraB FL H is for a final volume of 41 μL; His
How it was run: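 Full-length His-tagged kinase phosphorylates biotinylated Histone H3 (0.1 μM final) with ATP in pH 7.5 HEPES containing MgCl, MnCl, DTT and BSA for about 90 min. EDTA-containing detection mix with SA-APC and Eu-anti-phosphoHistone H3 then equilibrated about 60 min; HTRF read with 320 nm excitation, emissions 615/655 nm.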

T2 sequence (Q96GD4 whole entry): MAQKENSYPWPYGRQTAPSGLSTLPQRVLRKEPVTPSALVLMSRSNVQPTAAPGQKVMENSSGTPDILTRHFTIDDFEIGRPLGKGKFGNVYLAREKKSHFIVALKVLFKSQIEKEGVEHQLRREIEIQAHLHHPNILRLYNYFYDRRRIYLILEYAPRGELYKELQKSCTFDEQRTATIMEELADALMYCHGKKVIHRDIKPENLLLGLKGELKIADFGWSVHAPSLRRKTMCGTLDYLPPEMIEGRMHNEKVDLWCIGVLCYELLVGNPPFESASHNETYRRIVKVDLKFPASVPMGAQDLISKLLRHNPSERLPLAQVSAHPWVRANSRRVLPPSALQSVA

Compound	IC50 (AuroraA-TPX2)	IC50 (AuroraB)
c1ccc2c(-c3ccc4c(c3)OCO4)nnc(Nc3ccc(Sc4ccnc5ccncc45)cc3)c2c1 [compound 427]	0.055 µM	0.007 µM
Cc1csc(-c2nnc(Nc3ccc(Sc4ccnc5ccncc45)cc3)c3ccccc23)c1 [compound 428]	0.032 µM	0.013 µM
Cc1csc(-c2nnc(Nc3ccc(Oc4ccnc5ccncc45)cc3)c3ccccc23)c1 [compound 429]	0.046 µM	0.012 µM
Clc1ccc(-c2nnc(Nc3ccc(Sc4ccnc5ccncc45)cc3)c3ccccc23)nc1 [compound 430]	0.084 µM	0.007 µM
COCCOc1ccc2c(Sc3ccc(Nc4nnc(-c5ccc(Cl)cc5)c5ccccc45)cc3)ccnc2c1 [compound 431]	0.012 µM	0.018 µM
Cc1ccc(-c2nnc(Nc3ccc(Oc4ccnc5ccncc45)cc3)c3ccccc23)nc1 [compound 432]	0.122 µM	0.012 µM
Cc1ccc(-c2nnc(Nc3ccc(Sc4ccnc5ccncc45)cc3)c3ccccc23)nc1 [compound 433]	0.056 µM	0.004 µM
COCCOc1ccc2nccc(Sc3ccc(Nc4nnc(-c5ccc(Cl)cc5)c5ccccc45)cc3)c2c1 [compound 434]	0.109 µM	0.109 µM
COc1cc(OC)c2c(Oc3ccc(Nc4nnc(-c5ccc(Cl)cc5)c5ccccc45)cc3)ccnc2c1 [compound 435]	0.038 µM	0.121 µM
COc1cc(OC)c2c(Sc3ccc(Nc4nnc(-c5ccc(Cl)cc5)c5ccccc45)cc3)ccnc2c1 [compound 436]	0.401 µM	0.675 µM
COc1cc(F)cc2nccc(Oc3ccc(Nc4nnc(-c5ccc(Cl)cc5)c5ccccc45)cc3)c12 [compound 437]	0.042 µM	0.035 µM
COc1cc(F)cc2nccc(Sc3ccc(Nc4nnc(-c5ccc(Cl)cc5)c5ccccc45)cc3)c12 [compound 438]	0.112 µM	0.051 µM
COc1cc(OC)c2c(Sc3ccc(Nc4nnc(-c5cc(C)cs5)c5ccccc45)cc3)ccnc2c1 [compound 439]	1.66 µM	3.2 µM
COc1cc(F)cc2nccc(Sc3ccc(Nc4nnc(-c5cc(C)cs5)c5ccccc45)cc3)c12 [compound 440]	0.585 µM	0.596 µM
COc1cc(OC)c2c(Oc3ccc(Nc4nnc(-c5cc(C)cs5)c5ccccc45)cc3)ccnc2c1 [compound 441]	0.456 µM	0.135 µM
COc1cc(F)cc2nccc(Oc3ccc(Nc4nnc(-c5cc(C)cs5)c5ccccc45)cc3)c12 [compound 442]	0.157 µM	0.017 µM
c1cnc2c(Sc3ccc(Nc4nnc(-c5ccc6c(c5)OCO6)c5ccccc45)cc3)ccnc2c1 [compound 443]	0.012 µM	0.002 µM
FC1(F)Oc2ccc(-c3nnc(Nc4ccc(Sc5ccnc6cccnc56)cc4)c4ccccc34)cc2O1 [compound 444]	0.128 µM	0.022 µM
c1cnc2c(Sc3ccc(Nc4nnc(-c5ccc6c(c5)CCO6)c5ccccc45)cc3)ccnc2c1 [compound 445]	0.03 µM	0.013 µM
c1cnc2c(Sc3ccc(Nc4nnc(-c5ccc6occc6c5)c5ccccc45)cc3)ccnc2c1 [compound 446]	0.035 µM	0.011 µM
Cc1csc(-c2nnc(Nc3ccc(Oc4ccnc5cccnc45)cc3)c3ccccc23)c1 [compound 447]	0.027 µM	0.013 µM
Clc1ccc(-c2nnc(Nc3ccc(Oc4ccnc5cccnc45)cc3)c3ccccc23)cc1 [compound 448]	0.039 µM	0.011 µM
COc1cnc2c(Oc3ccc(Nc4nnc(-c5ccc(C)c(O)c5)c5ccccc45)cc3)ccnc2c1 [compound 449]	0.026 µM	0.006 µM
COCCOc1cc(-c2nnc(Nc3ccc(Sc4ccnc5cc(OC)cnc45)cc3)c3ccccc23)ccc1Cl [compound 450]	0.101 µM	0.054 µM
COc1cnc2c(Sc3ccc(Nc4nnc(-c5ccc(C)c(O)c5)c5ccccc45)cc3)ccnc2c1 [compound 451]	0.078 µM	0.033 µM

Compound	IC50 (AuroraA-TPX2)	IC50 (AuroraB)
Oc1cc(-c2nnc(Nc3ccc(Sc4ccnc5cccnc45)cc3)c3ccccc23)ccc1Cl [compound 452]	0.058 µM	0.003 µM
COc1cnc2c(Sc3ccc(Nc4nnc(-c5ccc6cn[nH]c6c5)c5ccccc45)cc3)ccnc2c1 [compound 453]	0.028 µM	0.032 µM
COc1cnc2c(Oc3c(F)cc(Nc4nnc(-c5ccc(Cl)cc5)c5ccccc45)cc3F)ccnc2c1 [compound 454]	0.05 µM	0.01 µM
Fc1ccc2c(Oc3ccc(Nc4nnc(-c5ccc(Cl)cc5)c5ccccc45)cc3)ccnc2c1 [compound 455]	> 125 µM	0.013 µM
COc1cnnc(Nc2ccc(Oc3ccnc4cc(OC)cnc34)cc2)c1 [compound 456]	1 µM	0.058 µM
N#Cc1cc2nccc(Sc3ccc(Nc4nnc(-c5ccc6c(c5)OCO6)c5ccccc45)cc3)c2s1 [compound 457]	0.062 µM	0.015 µM
N#Cc1cc2nccc(Sc3ccc(Nc4nnc(-c5ccccc5)c5ccccc45)cc3)c2s1 [compound 458]	> 25 µM	0.097 µM
Cc1csc(-c2nnc(Nc3ccc(Sc4ccnc5cc(C#N)sc45)cc3)c3ccccc23)c1 [compound 459]	0.21 µM	0.15 µM
N#Cc1cc2nccc(Sc3ccc(Nc4nnc(-c5ccc(Cl)cn5)c5ccccc45)cc3)c2s1 [compound 460]	0.045 µM	0.015 µM
Cc1ccc(-c2nnc(Nc3ccc(Sc4ccnc5cc(C#N)sc45)cc3)c3ccccc23)cn1 [compound 461]	0.044 µM	0.009 µM
c1ccc(-c2nnc(Nc3ccc(Sc4ccnc5cc[nH]c45)cc3)c3ccccc23)cc1 [compound 462, 4-phenyl-N-(4-(1H-pyrrolo[3,2-b]pyridin-7-ylthio)phenyl)-1-phthalazinamine]	0.557 µM	0.01 µM
Clc1ccc(-c2nnc(Nc3ccc(Sc4ccnc5cc[nH]c45)cc3)c3ccccc23)cc1 [compound 463, 4-(4-chlorophenyl)-N-(4-(1H-pyrrolo[3,2-b]pyridin-7-ylthio)phenyl)-1-phthalazinamine]	0.146 µM	0.008 µM
Cc1csc(-c2nnc(Nc3ccc(Sc4ccnc5cc[nH]c45)cc3)c3ccccc23)c1 [compound 464, 4-(4-methyl-2-thienyl)-N-(4-(1H-pyrrolo[3,2-b]pyridin-7-ylthio)phenyl)-1-phthalazinamine]	0.088 µM	0.006 µM
Clc1ccc(-c2nnc(Nc3ccc(Sc4ccnc5ccoc45)cc3)c3ccccc23)cc1 [compound 465]	0.093 µM	0.012 µM
c1ccc(-c2nnc(Nc3ccc(Sc4ccnc5ccoc45)cc3)c3ccccc23)cc1 [compound 466]	0.431 µM	0.013 µM
c1ccc2c(-c3ccc4c(c3)OCO4)nnc(Nc3ccc(Sc4ccnc5ccoc45)cc3)c2c1 [compound 467]	0.095 µM	0.01 µM
Cc1csc(-c2nnc(Nc3ccc(Sc4ccnc5ccoc45)cc3)c3ccccc23)c1 [compound 468]	0.129 µM	0.029 µM
COCCn1ccc2nccc(Sc3ccc(Nc4nnc(-c5ccc(Cl)cc5)c5ccccc45)cc3)c21 [compound 469, 4-(4-chlorophenyl)-N-(4-((1-(2-(methyloxy)ethyl)-1H-pyrrolo[3,2-b]pyridin-7-yl)thio)phenyl)-1-phthalazinamine]	0.11 µM	0.053 µM
COCCn1ccc2nccc(Sc3ccc(Nc4nnc(-c5cc(C)cs5)c5ccccc45)cc3)c21 [compound 470, N-(4-((1-(2-(methyloxy)ethyl)-1H-pyrrolo[3,2-b]pyridin-7-yl)thio)phenyl)-4-(4-methyl-2-thienyl)-1-phthalazinamine]	0.041 µM	0.051 µM
CC(C)n1ccc2nccc(Sc3ccc(Nc4nnc(-c5ccc(Cl)cc5)c5ccccc45)cc3)c21 [compound 471, 4-(4-chlorophenyl)-N-(4-((1-(1-methylethyl)-1H-pyrrolo[3,2-b]pyridin-7-yl)thio)phenyl)-1-phthalazinamine]	0.09 µM	0.049 µM
Cc1csc(-c2nnc(Nc3ccc(Sc4ccnc5ccn(C(C)C)c45)cc3)c3ccccc23)c1 [compound 472, N-(4-((1-(1-methylethyl)-1H-pyrrolo[3,2-b]pyridin-7-yl)thio)phenyl)-4-(4-methyl-2-thienyl)-1-phthalazinamine]	0.064 µM	0.099 µM
COCCOc1ccc(-c2nnc(Nc3ccc(Sc4ccnc5cc(OC)cnc45)cc3)c3ccccc23)cc1OCCOC [compound 473]	0.073 µM	0.011 µM
COCCOc1ccc(-c2nnc(Nc3ccc(Sc4ccnc5cc(OC)cnc45)cc3)c3ccccc23)cc1 [compound 474]	0.051 µM	0.016 µM
COCCOCCOc1ccc2nccc(Sc3ccc(Nc4nnc(-c5ccc(Cl)cc5)c5ccccc45)cc3)c2n1 [compound 475]	0.035 µM	0.026 µM
COCCOCCn1c(=O)ccc2nccc(Sc3ccc(Nc4nnc(-c5ccc(Cl)cc5)c5ccccc45)cc3)c21 [compound 476]	0.746 µM	0.293 µM

From patent US8557816B2, “Aurora kinase modulators and method of use” (Amgen Inc., priority 2007, dated 2013)
